Source: patent US20120231482A1, “METHOD, KIT OR DIAGNOSTIC FOR THE DETECTION OF REAGENTS WHICH INDUCE ALTERED CONTRACTILITY” (THE JOHNS HOPKINS UNIVERSITY, priority 2009, published 2012)

Tests used:
skinned trabeculae = test: Force-[Ca2+] relation in skinned trabeculae; assay type: cell-based, rat; conditions: after skinning; NCA
Description: FIG. 2. […] (A) Steady-state force-[Ca^2+]i relationship in intact trabeculae before and after NCA (20 μmol/L). n=5. See text for details. (B) Force-[Ca^2+] relation in skinned trabeculae before and after NCA (n=6). […] The muscles were treated with DTT (5 mM) for 10 min after 1st force-[Ca^2+] was obtained in the presence of NCA alone, and a second force-[Ca^2+] relation was obtained in the presence of NCA+DTT. n=3. (D) For comparison, steady-state force-[Ca^2+]i relationship in intact trabeculae before and after AS (500 μmol/L). n=5.
To further test this hypothesis, steady-state force-[Ca^2+]i relations were obtained by tetanizing the muscles in the presence of ryanodine.

tropomyosin = target: T1, tropomyosin (Rattus norvegicus, UniProt P04692); test: Gel shift assay, reducing/non-reducing western blot of cardiac myofibrils; assay type: biochemical; conditions: non-reducing; lost with 5 mM DTT
T1 construct: Rat myofibrillar preparations, as described in [7], were obtained from frozen ventricles (Pel Freez Biologicals); tissue Pel Freez Biologicals; host or cells: myofibrils from frozen rat ventricles
T1 sequence (P04692 whole entry): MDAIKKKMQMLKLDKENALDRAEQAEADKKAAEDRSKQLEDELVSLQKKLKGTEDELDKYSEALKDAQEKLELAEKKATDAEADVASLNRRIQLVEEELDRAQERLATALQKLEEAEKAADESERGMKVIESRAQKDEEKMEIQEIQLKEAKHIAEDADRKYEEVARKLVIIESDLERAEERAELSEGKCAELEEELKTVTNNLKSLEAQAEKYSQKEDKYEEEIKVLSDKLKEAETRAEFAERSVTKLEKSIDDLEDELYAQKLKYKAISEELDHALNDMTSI
Description: FIG. 4. Validation and characterizations of HNO modifications. 1 μg of rat cardiac myofibrils treated with HNO donors or control compounds were separated under reducing or nonreducing conditions and western blots probed for candidate proteins tropomyosin, actin, myosin heavy chain, myosin light chain 1 (n=4). […] Silver stained gel analysis indicated a protein band with […] gel mobility that was lost with DTT.
FIG. 5. Evaluation of the interaction between actin and tropomyosin with NCA treatment. Purified rabbit skeletal tropomyosin (0.03 μg) and isolated rat cardiac myofibrils (1 μg) were treated with NCA or AS and evaluated by 1D non-reducing western blot probing for tropomyosin (A) and actin (B) (n=3). […] (C) Fluorescent DIGE analysis of samples from A and B independent labeled indicates NCA specific band (green) above purified TM (blue) and below AS treated myofibrils (red) (n=3). (D) MS analysis of the same gel region identified both tropomyosin and actin in non-reduced lane but not with DTT treatment (n=2).
Gel shift assay. 10 μg of rat myofibrils/treatment were diluted to 0.5 μg/μl in HEN including 0.1% (w/v) SDS and exposed to a treatment for 20 min at 37° C. Samples were diluted to 0.1 ug/ul in 1×LSD sample buffer, treated with 0, 5 or 100 mM DTT and separated by SDS PAGE. Proteins were silver stained or transferred to nitrocellulose and immunoblotted with primary antibodies for tropomyosin sarcomeric (CH1, Sigma-Aldrich Co., St. Louis, Mo., USA), actin (AC-40, Sigma-Aldrich Co., St. Louis, Mo., USA), myosin light chain 1 (MLM527, Abcam, Cambridge, Mass., USA) or myosin heavy chain (3-48, Abcam, Cambridge, Mass., USA). For some silver stained gel bands of interest in-gel digestion was done following the protocol outlined in Shevchenko et al.. Gel slices of interest were excised from the gels cut into 1 mm^3 pieces. Silver stained gel pieces were destained in 1:1(v/v) 30 mM Potassium ferricyanide and 100 mM Sodium thiosulfate and wash three times with ddH2O. Gel pieces were dehydrated in 100% acetonitrile and reswelled in 10 mM DTT and incubated at 55° C. for 1 hour. After the DTT solution was removed, a solution of 55 mM iodoacetimide was added and gel slices were incubated at room temperature protected from light. Gel slices were then washed 3 times with 50% (v/v) ACN, 25 mM (NH4)HCO3 and then fully dehydrated in 100% ACN and dried in a speed vac. Gel pieces were reswelled in a 12.5 ng/μL trypsin (Promega, Madison Wis. USA) solution containing 25 mM (NH4)HCO3 and incubated at 37° C. for >16 hours. Digested peptides were extracted by addition of 5% (v/v) formic acid and incubation for 15 min followed by addition of an equal volume of 100% ACN and 15 min incubation, this step was repeated and the extracts were combined. […]

CC(=O)OC1(N=O)CCCCC1 [NCA, 1-nitrosocyclohexylacetate]
Hill (skinned trabeculae): 2.39±1.02
tropomyosin molecular weight shift (tropomyosin): higher molecular weight species that was specific for NCA treatment
